Measured values reported in the NIST ThermoML archive (doi:10.1016/j.tca.2018.01.008).
Numbers after ± are expanded uncertainties.

Conditions: 293.15 K; 101.33 kPa; Liquid; transient hot wire

| thermal conductivity | SMILES |
| --- | --- |
| 0.25 ± 0.004 W/m/K | OCCO [1,2-ethanediol] |
| 0.597 ± 0.01 W/m/K | O [water] |
